ChEMBL document CHEMBL1158786, “Triterpenoid saponin anthranilates from Albizia grandibracteata leaves ingested by primates in Uganda” (J Nat Prod, 2005)
pIC50: −log10 of the molar value.

How the values were obtained:
MCF7 = assay: Cytotoxicity against human MCF7 cells; type: functional, cell-based
KB = assay: Cytotoxicity against human KB cells; type: functional, cell-based

SMILES: COc1cccc2c1C(=O)c1c(O)c3c(c(O)c1C2=O)C[C@@](O)(C(=O)CO)C[C@@H]3O[C@H]1C[C@H](N)[C@H](O)[C@H](C)O1 [DOXORUBICIN]
- pIC50 (MCF7): 7.00
- pIC50 (KB): 7.00

SMILES: CC(=O)N[C@H]1[C@H](O[C@H]2CC[C@]3(C)[C@H]4CC=C5[C@@H]6CC(C)(C)[C@@H](OC(=O)c7ccccc7N)C[C@]6(C(=O)O[C@@H]6O[C@H](CO)[C@@H](O)[C@H](O)[C@H]6O[C@@H]6O[C@@H](C)[C@H](O[C@@H]7O[C@@H](CO)[C@H](O)[C@H]7O)[C@@H](O[C@@H]7O[C@H](CO)[C@@H](O)[C@H](O)[C@H]7O)[C@H]6O)[C@H](O)C[C@@]5(C)[C@]4(C)CC[C@H]3C2(C)C)O[C@H](CO[C@@H]2O[C@H](C)[C@H](O)[C@H](O)[C@H]2O[C@@H]2OC[C@@H](O)[C@H](O)[C@H]2O)[C@@H](O)[C@@H]1O [GRANDIBRACTEOSIDE C]
- pIC50 (MCF7): 5.77
- pIC50 (KB): 5.64

SMILES: CC(=O)N[C@H]1[C@H](O[C@H]2CC[C@]3(C)[C@H]4CC=C5[C@@H]6CC(C)(C)[C@@H](OC(=O)c7ccccc7N)C[C@]6(C(=O)O[C@@H]6O[C@H](CO[C@@H]7O[C@H](CO)[C@@H](O)[C@H](O)[C@H]7O)[C@@H](O)[C@H](O)[C@H]6O[C@@H]6O[C@@H](C)[C@H](O[C@@H]7OC[C@@H](O)[C@H](O)[C@H]7O)[C@@H](O)[C@H]6O)[C@H](O)C[C@@]5(C)[C@]4(C)CC[C@H]3C2(C)C)O[C@H](CO[C@@H]2O[C@H](C)[C@H](O)[C@H](O)[C@H]2O[C@@H]2OC[C@@H](O)[C@H](O)[C@H]2O)[C@@H](O)[C@@H]1O [GRANDIBRACTEOSIDE B]
- pIC50 (MCF7): 5.77
- pIC50 (KB): 5.64

SMILES: CC(=O)N[C@H]1[C@H](O[C@H]2CC[C@]3(C)[C@H]4CC=C5[C@@H]6CC(C)(C)[C@@H](OC(=O)c7ccccc7N)C[C@]6(C(=O)O[C@@H]6O[C@H](CO)[C@@H](O)[C@H](O)[C@H]6O[C@@H]6O[C@@H](C)[C@H](O[C@@H]7OC[C@@H](O)[C@H](O)[C@H]7O)[C@@H](O)[C@H]6O)[C@H](O)C[C@@]5(C)[C@]4(C)CC[C@H]3C2(C)C)O[C@H](CO[C@@H]2O[C@H](C)[C@H](O)[C@H](O)[C@H]2O[C@@H]2OC[C@@H](O)[C@H](O)[C@H]2O)[C@@H](O)[C@@H]1O [GRANDIBRACTEOSIDE A]
- pIC50 (MCF7): 6.40
- pIC50 (KB): 5.89
